pIC50: −log10 of the molar value.
biological target: Syk (Homo sapiens, UniProt P43405); assay: High Throughput Syk Biochemical Assay (KinEASE TR-FRET); conditions: TABLE D, 20 μM ATP, 1 μM biotinylated peptide, 0.015 nM Syk, 30 min at room temperature, read-out: IC50
In short: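 Compounds in DMSO dilution series were tested against Syk, which phosphorylates an XL665-tagged peptide. The phosphoproduct was bound by Eu-labelled phosphotyrosine antibody in a two-step endpoint format.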

| SMILES | pIC50 |
| --- | --- |
| C[C@@H](Oc1nc(-c2ccc(N3CCN(C(=O)OC(C)(C)C)CC3)cc2)cc2ncn(C)c12)[C@H]1CNC(=O)C1 [tert-butyl 4-(4-(3-methyl-4-((R)-1-((R)-5-oxopyrrolidin-3-yl)ethoxy)-3H-imidazo[4,5-c]pyridin-6-yl)phenyl)piperazine-1-carboxylate] | 7.74 |
| COc1ccc(-c2cn3nc(C)cc3c(O[C@H](C)[C@H]3CNC(=O)C3)n2)cc1OC [(R)-4-((R)-1-((6-(3,4-dimethoxyphenyl)-2-methylpyrazolo[1,5-a]pyrazin-4-yl)oxy)ethyl)pyrrolidin-2-one] | 7.50 |
| COc1ccc(-c2cc3nc(C)n(C4CC4)c3c(O[C@H](C)[C@H]3CNC(=O)C3)n2)cc1OC [(R)-4-((R)-1-(3-cyclopropyl-6-(3,4-dimethoxyphenyl)-2-methyl-3H-imidazo[4,5-c]pyridin-4-yloxy)ethyl)pyrrolidin-2-one] | 7.02 |
| COc1ccc(-c2cc3ncn(C4COC4)c3c(O[C@H](C)[C@H]3CNC(=O)C3)n2)cc1OC [(R)-4-((R)-1-(6-(3,4-dimethoxyphenyl)-3-(oxetan-3-yl)-3H-imidazo[4,5-c]pyridin-4-yloxy)ethyl)pyrrolidin-2-one] | 7.27 |
| C[C@@H](Oc1nc(-c2ccc3c(c2)OCCN3C)cc2ncn(C)c12)[C@H]1CNC(=O)C1 [(R)-4-((R)-1-(3-methyl-6-(4-methyl-3,4-dihydro-2H-benzo[b][1,4]oxazin-7-yl)-3H-imidazo[4,5-c]pyridin-4-yloxy)ethyl)pyrrolidin-2-one] | 8.05 |
| C[C@@H](Oc1nc(-c2ccc(N3CCNCC3)cc2)cc2ncn(C)c12)[C@H]1CNC(=O)C1 [(R)-4-((R)-1-(3-methyl-6-(4-(piperazin-1-yl)phenyl)-3H-imidazo[4,5-c]pyridin-4-yloxy)ethyl)pyrrolidin-2-one] | 8.08 |
| COc1ccc(-c2cc3ncn(C4CCC4)c3c(O[C@H](C)[C@H]3CNC(=O)C3)n2)cc1OC [(R)-4-((R)-1-(3-cyclobutyl-6-(3,4-dimethoxyphenyl)-3H-imidazo[4,5-c]pyridin-4-yloxy)ethyl)pyrrolidin-2-one] | 7.63 |
| Cc1cnn2cc(-c3ccc(N4CCOCC4)cc3)nc(O[C@H](C)[C@H]3CNC(=O)C3)c12 [(R)-4-((R)-1-((3-methyl-6-(4-morpholinophenyl)pyrazolo[1,5-a]pyrazin-4-yl)oxy)ethyl)pyrrolidin-2-one] | 9.42 |

The next lines start with the values.

| pIC50 | SMILES |
| --- | --- |
| 6.98 | C[C@@H](Oc1cc(-c2cccc3scnc23)cc2ncsc12)[C@H]1CNC(=O)C1 [(R)-4-((R)-1-([4,5′-bibenzo[d]thiazol]-7′-yloxy)ethyl)pyrrolidin-2-one] |
| 8.11 | C[C@@H](Oc1cc(-c2cc3c(cnn3C)s2)cc2ncsc12)[C@H]1CNC(=O)C1 [(R)-4-((R)-1-(5-(1-methyl-1H-thieno[3,2-c]pyrazol-5-yl)benzo[d]thiazol-7-yloxy)ethyl)pyrrolidin-2-one] |
| 7.42 | COc1ccc(-c2cc(O[C@H](C)[C@H]3CNC(=O)C3)c3c(c2)ncn3C)cc1OC [(R)-4-((R)-1-((5-(3,4-dimethoxyphenyl)-1-methyl-1H-benzo[d]imidazol-7-yl)oxy)ethyl)pyrrolidin-2-one] |
| 7.37 | C[C@@H](Oc1nc(-c2cccc(S(C)(=O)=O)c2)cc2ncn(C)c12)[C@H]1CNC(=O)C1 [(R)-4-((R)-1-(3-methyl-6-(3-(methylsulfonyl)phenyl)-3H-imidazo[4,5-c]pyridin-4-yloxy)ethyl)pyrrolidin-2-one] |
| 9.16 | C[C@@H](Oc1cc(-c2cnn(C3CCC3)c2)cc2ncsc12)[C@H]1CNC(=O)C1 (stereo in doubt) [(R)-4-((R)-1-((5-(1-cyclobutyl-1H-pyrazol-4-yl)benzo[d]thiazol-7-yl)oxy)ethyl)pyrrolidin-2-one] |
| 8.80 | COc1ccc(-c2cc3ncn(C4CC4)c3c(O[C@H](C)[C@H]3CNC(=O)C3)n2)cc1OC [(R)-4-((R)-1-(3-cyclopropyl-6-(3,4-dimethoxyphenyl)-3H-imidazo[4,5-c]pyridin-4-yloxy)ethyl)pyrrolidin-2-one] |
| 8.83 | C[C@H](Oc1cc(-c2cnc(C(C)(C)C)s2)cc2ncsc12)[C@@H]1CNC(=O)C1 (stereo in doubt) [(S)-4-((S)-1-((5-(2-(tert-butyl)thiazol-5-yl)benzo[d]thiazol-7-yl)oxy)ethyl)pyrrolidin-2-one] |
| 8.47 | CCn1ccc(-c2cc(O[C@H](C)[C@H]3CNC(=O)C3)c3scnc3c2)n1 [(R)-4-((R)-1-((5-(1-ethyl-1H-pyrazol-3-yl)benzo[d]thiazol-7-yl)oxy)ethyl)pyrrolidin-2-one] |
| 8.29 | COc1ccc(-c2cc3ncn(C)c3c(O[C@H](C)[C@H]3CNC(=O)C3)n2)cc1OC [(R)-4-((R)-1-(6-(3,4-dimethoxyphenyl)-3-methyl-3H-imidazo[4,5-c]pyridin-4-yloxy)ethyl)pyrrolidin-2-one] |
| 7.77 | C[C@@H](Oc1nc(-c2ccc3cnn(C)c3c2)cc2ncn(C)c12)[C@H]1CNC(=O)C1 [(R)-4-((R)-1-((3-methyl-6-(1-methyl-1H-indazol-6-yl)-3H-imidazo[4,5-c]pyridin-4-yl)oxy)ethyl)pyrrolidin-2-one] |
| 7.61 | C[C@@H](Oc1nc(-c2cnn(C)c2)cc2ncn(C)c12)[C@H]1CNC(=O)C1 [(R)-4-((R)-1-(3-methyl-6-(1-methyl-1H-pyrazol-4-yl)-3H-imidazo[4,5-c]pyridin-4-yloxy)ethyl)pyrrolidin-2-one] |

same assay, conditions: table 'ALL NEW COMPOUNDS IN 2014', 20 μM ATP, 1 μM biotinylated peptide, 0.015 nM Syk, 30 min at room temperature, read-out: Syk IC50

| SMILES | pIC50 |
| --- | --- |
| C[C@@H](Oc1nc(-c2ccc(N3CCN(C4COC4)CC3)nc2)cc2ncn(C)c12)[C@H]1CNC(=O)C1 [(R)-4-((R)-1-((3-methyl-6-(6-(4-(oxetan-3-yl)piperazin-1-yl)pyridin-3-yl)-3H-imidazo[4,5-c]pyridin-4-yl)oxy)ethyl)pyrrolidin-2-one] | 7.91 |
| C[C@@H](Oc1nc(-c2ccc(N3CCn4cnnc4C3)cc2)cc2ncn(C3CC3)c12)[C@H]1CNC(=O)C1 [(R)-4-((R)-1-((3-cyclopropyl-6-(4-(5,6-dihydro-[1,2,4]triazolo[4,3-a]pyrazin-7(8H)-yl)phenyl)-3H-imidazo[4,5-c]pyridin-4-yl)oxy)ethyl)pyrrolidin-2-one] | 8.88 |
| C[C@@H](Oc1nc(-c2cnc(C(C)(C)O)s2)cc2ncn(C3CC3)c12)[C@H]1CNC(=O)C1 [(R)-4-((R)-1-((3-cyclopropyl-6-(2-(2-hydroxypropan-2-yl)thiazol-5-yl)-3H-imidazo[4,5-c]pyridin-4-yl)oxy)ethyl)pyrrolidin-2-one] | 8.12 |
| Cc1cc(-c2cc(O[C@H](C)[C@H]3CNC(=O)C3)c3c(c2)ncn3C2CC2)ccc1N1CCN(C2COC2)CC1 [(R)-4-((R)-1-((1-cyclopropyl-5-(3-methyl-4-(4-(oxetan-3-yl)piperazin-1-yl)phenyl)-1H-benzo[d]imidazol-7-yl)oxy)ethyl)pyrrolidin-2-one] | 8.67 |
| C[C@@H](Oc1cc(-c2ccc(N3CCN(C4COC4)CC3)c(C#N)c2)cc2ncn(C3CC3)c12)[C@H]1CNC(=O)C1 [5-(1-cyclopropyl-7-((R)-1-((R)-5-oxopyrrolidin-3-yl)ethoxy)-1H-benzo[d]imidazol-5-yl)-2-(4-(oxetan-3-yl)piperazin-1-yl)benzonitrile] | 8.50 |
| CCS(=O)(=O)N1CCN(c2ccc(-c3cc4ncn(C5CC5)c4c(O[C@H](C)[C@H]4CNC(=O)C4)n3)cc2)CC1 [(R)-4-((R)-1-((3-cyclopropyl-6-(4-(4-(ethylsulfonyl)piperazin-1-yl)phenyl)-3H-imidazo[4,5-c]pyridin-4-yl)oxy)ethyl)pyrrolidin-2-one] | 8.98 |
| C[C@@H](Oc1nc(-c2ccc(N3CCN(S(C)(=O)=O)CC3)c(F)c2)cc2ncn(C3CC3)c12)[C@H]1CNC(=O)C1 [(R)-4-((R)-1-((3-cyclopropyl-6-(3-fluoro-4-(4-(methylsulfonyl)piperazin-1-yl)phenyl)-3H-imidazo[4,5-c]pyridin-4-yl)oxy)ethyl)pyrrolidin-2-one] | 8.70 |
| C[C@@H](Oc1nc(-c2ccc3c(C4CC4)n[nH]c3c2)cc2ncn(C3CC3)c12)[C@H]1CNC(=O)C1 | 8.21 |
| C[C@@H](Oc1cc(-c2ccc(N3CCC(N4CCOCC4)CC3)cn2)cc2ncn(C3CC3)c12)[C@H]1CNC(=O)C1 [(R)-4-((R)-1-((1-cyclopropyl-5-(5-(4-morpholinopiperidin-1-yl)pyridin-2-yl)-1H-benzo[d]imidazol-7-yl)oxy)ethyl)pyrrolidin-2-one] | 8.16 |
| C[C@@H](Oc1nc(-c2cnn(C(C)(C)CO)c2)cc2ncn(C3CC3)c12)[C@H]1CNC(=O)C1 | 8.46 |
| C[C@@H](Oc1cc(-c2ccnn2C2CCOCC2)cc2ncn(C3CC3)c12)[C@H]1CNC(=O)C1 [(R)-4-((R)-1-((1-cyclopropyl-5-(1-(tetrahydro-2H-pyran-4-yl)-1Hpyrazol-5-yl)-1H-benzo[d]imidazol-7-yl)oxy)ethyl)pyrrolidin-2-one] | 6.39 |
| C[C@@H](Oc1nc(-c2ccc(N3CCN(C4COC4)CC3)nc2)cc2ncn(C3CC3)c12)[C@H]1CNC(=O)C1 [(R)-4-((R)-1-((3-cyclopropyl-6-(6-(4-(oxetan-3-yl)piperazin-1-yl)pyridin-3-yl)-3H-imidazo[4,5-c]pyridin-4-yl)oxy)ethyl)pyrrolidin-2-one] | 8.44 |

Results, then the compound that gave them:

| pIC50 | SMILES |
| --- | --- |
| 7.61 | C[C@@H](Oc1cc(-c2ccncn2)cc2ncn(C3CC3)c12)[C@H]1CNC(=O)C1 [(R)-4-((R)-1-((1-cyclopropyl-5-(pyrimidin-4-yl)-1H-benzo[d]imidazol-7-yl)oxy)ethyl)pyrrolidin-2-one] |
| 8.85 | Cc1nc(-c2cc(O[C@H](C)[C@H]3CNC(=O)C3)c3c(c2)ncn3C2CC2)sc1C [(R)-4-((R)-1-((1-cyclopropyl-5-(4,5-dimethylthiazol-2-yl)-1H-benzo[d]imidazol-7-yl)oxy)ethyl)pyrrolidin-2-one] |
| 8.67 | Cc1cc(-c2cc(O[C@H](C)[C@H]3CNC(=O)C3)c3c(c2)ncn3C2CC2)nn1C [(R)-4-((R)-1-((1-cyclopropyl-5-(1,5-dimethyl-1H-pyrazol-3-yl)-1H-benzo[d]imidazol-7-yl)oxy)ethyl)pyrrolidin-2-one] |

Reference: US10005774B2, “Syk inhibitors” (Gilead Sciences, Inc., priority 2013, dated 2018)
